Measurements reported in patent publication US20120309676A1, “Lantibiotic Salts” (priority 2010, published 2012).
Structures can show the parent of a compound that is named as a salt.

Assays:
[1] = In vivo plasma half-life in mice; conditions: male, mouse, 29.76 mg/kg; CD-1 mice, IV dose of Example 1 (9.3 mL/Kg of 3.2 mg/mL solution); Compound 1 in plasma by LC-MS
Experimental: The in vivo half-life of Compound 1 in mice was determined by measurement of its plasma concentrations at various time points following IV dosing. 18 male CD-1 mice aged 7-9 weeks were dosed IV with a 9.3 mL/Kg dose of a 3.2 mg/mL solution of Example 1 in 15% hydroxypropyl-β-cyclodextrin/4.4% glucose/1 mM potassium phosphate (pH=7.6). Plasma samples were obtained at 10, 20, 30, 60, 120 and 240 min post-dose, sampling from 3 animals at each time point. Concentrations of Compound 1 in plasma were determined by LC-MS quantification.

[2] = Aqueous solubility; assay type: physicochemical; conditions: for pH of saturated solution: aqueous saturated solution
Source text: Solubility as employed herein is used generically to refer to a distribution of a compound of formula (I) in a solvent (for example water, saline or an aqueous isotonic solution such as glucose) such that the formulation/composition resulting therefrom is substantially free of visible aggregates and for example is substantially transparent when viewed by the naked eye. Such a formulation would therefore include a whole range of formats which are suitable for infusion and/or injection such as solutions, suspensions, colloids and the like. […]

[3] = test system: Methicillin Resistant Staphylococcus aureus (MRSA, ATCC 33591); experiment: Neutropaenic mouse thigh infection model, further experiment; assay type: in vivo; conditions: IV 2 and 14 h after infection, 2.5-50 mg/Kg, FIG. 3
Experimental: In a further experiment, groups of 6 male ICR mice weighing 24±2 g were used. Test animals were immunosuppressed by 2 intraperitoneal injections of cyclophosphamide, the first at 150 mg/Kg 4 days before infection (day-4) and the second at 100 mg/Kg 1 day before infection (day-1). On day 0, individual animals were inoculated intramuscularly (IM) into the right thigh of test animals with 1.5×10^5 CFU/mouse of Methicillin Resistant Staphylococcus aureus (MRSA, ATCC 33591) suspended in 100 μL of sterile PBS, pH 7.4. Vehicle and test substances were administered intravenously (IV) at a dose volume of 8 mL/Kg, 2 and 14 hours after thigh infection. Example 1 was dissolved in 5% dextrose/1 mM potassium phosphate, pH 5.0 and administered at doses of 2.5, 5, 10, 15, 25 and 50 mg/Kg. At 26 hours after inoculation, muscle of the right thigh of each test mouse was harvested. From an additional group with no treatment, muscle of the right thigh was harvested at 2 hours after inoculation for the basal CFU determination. The removed muscle tissues were then homogenized in 3-4 mL of PBS, pH 7.4 with a ceramic mortar. Homogenates of 0.1 mL were used for serial 10-fold dilutions and plated on Mueller Hinton broth in 1.5% Bacto agar for CFU determination.

[4] = test system: Methicillin Resistant Staphylococcus aureus (MRSA, ATCC 33591); experiment: Neutropaenic mouse thigh infection model; assay type: in vivo
Experimental: In vivo efficacy of compounds of the present invention in the treatment of bacterial tissue infections was evaluated using a neutropaenic mouse thigh model.
Groups of 6 male ICR mice weighing 24±2 g were used. Test animals were immunosuppressed by 2 intraperitoneal injections of cyclophosphamide, the first at 150 mg/Kg 4 days before infection (day-4) and the second at 100 mg/Kg 1 day before infection (day-1). On day 0, individual animals were inoculated intramuscularly (IM) into the right thigh of test animals with 1.15×10^8 CFU/mouse of Methicillin Resistant Staphylococcus aureus (MRSA, ATCC 33591) suspended in 100 μL of sterile PBS, pH 7.4. Vehicle and test substances were administered intravenously (IV) at a dose volume of 6 mL/Kg, 2 and 14 hours after thigh infection. Example 1 and vancomycin were dissolved in 15% hydroxypropyl-β-cyclodextrin/4.4% glucose/1.5 mM potassium phosphate buffer, pH 7.0 and administered at doses of 5, 10, 20, 30 and 40 mg/Kg. At 26 hours after inoculation, muscle of the right thigh of each test mouse was harvested. From an additional group with no treatment, muscle of the right thigh was harvested at 2 hours after inoculation for the basal CFU determination. The removed muscle tissues were then homogenized in 3-4 mL of PBS, pH 7.4 with a ceramic mortar. Homogenates of 0.1 mL were used for serial 10-fold dilutions and plated on Mueller Hinton broth in 1.5% Bacto agar for CFU determination. […] Results (mean cfu/g) are graphically represented in FIG. 2.

[5] = test system: Staphylococcus aureus methicillin resistant ATCC 33591; experiment: Mouse bacteraemia model, second experiment, IV dosing; assay type: in vivo; conditions: for number of deaths: after 7 days, groups of 6 mice
Experimental: In a second experiment Groups of 6 male CD-1 (Crl.) derived mice weighing 24±2 g were used. Mice were inoculated intraperitoneally (IP) with an LD90-100 of Staphylococcus aureus methicillin resistant ATCC 33591 (1.35×10^8 CFU/mouse) in 0.5 mL of BHI broth containing 5% mucin. Example 1 was dissolved in 5% dextrose/1.5 mM potassium phosphate, pH 5.0 and doses of 1, 3, 5 and 10 mg/Kg were administered intravenously (IV) to test animals at 1 and 13 hour(s) after bacteria challenge. The dosing volume was 5 mL/Kg. Mortality was recorded once daily for 7 days.

[6] = test system: Staphylococcus aureus methicillin resistant ATCC 33591; experiment: Mouse bacteraemia model, SC dosing; assay type: in vivo
Experimental: Groups of 6 male CD-1 (Crl.) derived mice weighing 24±2 g were used. Mice were inoculated intraperitoneally (IP) with an LD90-100 of Staphylococcus aureus methicillin resistant ATCC 33591 (1.1×10^7 CFU/mouse) in 0.5 mL of BHI broth containing 5% mucin. Example 1 and vancomycin were dissolved in 15% HPbetaCD/4.4% glucose/0.5 mM KH2PO4, pH 5.0 and doses of 1, 3, 5, 10 and 20 mg/Kg were administered subcutaneously (SC) to test animals at 0, 2 and 24 hour(s) after bacteria challenge. The dosing volume was 5 mL/Kg. Mortality was recorded once daily for 7 days (FIG. 1). The ED50 for each compound was determined by nonlinear regression.

[7] = aqueous, * = calculations made from two determinations

CCC(C)[C@@H]1NC(=O)[C@@H]2NC(=O)[C@H](CC(C)C)NC(=O)[C@H](NC(=O)[C@H]3CSC[C@H](N)C(=O)N[C@@H](CO)C(=O)NCC(=O)N[C@@H](Cc4c[nH]c5ccccc45)C(=O)N[C@@H](C(C)C)C(=O)N3)[C@H](C)SC[C@H](NC(=O)[C@H](CCC(=O)O)NC1=O)C(=O)NCC(=O)N[C@@H]1C(=O)N[C@@H](CC(C)C)C(=O)N[C@@H](C(C)C)C(=O)N[C@@H](CS[C@H]2C)C(=O)N[C@@H](C)C(=O)N[C@H](C(=O)NCc2cc(Cl)cc(Cl)c2)CS[C@H]1C (stereo partly drawn) [Compound 1, Deoxyactagardine B (3,5-dichlorobenzylamine) monocarboxamide]
half-life [1]: ~2 h

CC[C@H](C)[C@@H]1NC(=O)[C@@H]2NC(=O)[C@H](CC(C)C)NC(=O)[C@H](NC(=O)[C@@H]3CSC[C@@H](N)C(=O)N[C@@H](CO)C(=O)NCC(=O)N[C@@H](Cc4c[nH]c5ccccc45)C(=O)N[C@@H](C(C)C)C(=O)N3)[C@H](C)SC[C@H](NC(=O)[C@H](CCC(=O)O)NC1=O)C(=O)NCC(=O)N[C@H]1C(=O)N[C@@H](CC(C)C)C(=O)N[C@@H](C(C)C)C(=O)N[C@@H](CS[C@H]2C)C(=O)N[C@@H](C)C(=O)N[C@H](C(=O)NCc2cc(Cl)cc(Cl)c2)CS[C@H]1C [N-ethyl-D-glucamine salt]
pH of saturated solution [2]: 8.43
Solubility [2, 7]: 11.16* mg/mL
Solubility ([2]; salts of compound 1, listed as N-ethyl glucamine salt of compound 1): more than 10 mg/mL

CC[C@H](C)[C@@H]1NC(=O)[C@@H]2NC(=O)[C@H](CC(C)C)NC(=O)[C@H](NC(=O)[C@@H]3CSC[C@@H](N)C(=O)N[C@@H](CO)C(=O)NCC(=O)N[C@@H](Cc4c[nH]c5ccccc45)C(=O)N[C@@H](C(C)C)C(=O)N3)[C@H](C)SC[C@H](NC(=O)[C@H](CCC(=O)O)NC1=O)C(=O)NCC(=O)N[C@H]1C(=O)N[C@@H](CC(C)C)C(=O)N[C@@H](C(C)C)C(=O)N[C@@H](CS[C@H]2C)C(=O)N[C@@H](C)C(=O)N[C@H](C(=O)NCc2cc(Cl)cc(Cl)c2)CS[C@H]1C [diethanolamine salt]
pH of saturated solution [2]: 8.78
Solubility [2, 7]: 6.94* mg/mL
Solubility ([2]; salts of compound 1, listed as diethanolamine salt of compound 1): more than 5 mg/mL

CC[C@H](C)[C@@H]1NC(=O)[C@@H]2NC(=O)[C@H](CC(C)C)NC(=O)[C@H](NC(=O)[C@@H]3CSC[C@@H](N)C(=O)N[C@@H](CO)C(=O)NCC(=O)N[C@@H](Cc4c[nH]c5ccccc45)C(=O)N[C@@H](C(C)C)C(=O)N3)[C@H](C)SC[C@H](NC(=O)[C@H](CCC(=O)O)NC1=O)C(=O)NCC(=O)N[C@H]1C(=O)N[C@@H](CC(C)C)C(=O)N[C@@H](C(C)C)C(=O)N[C@@H](CS[C@H]2C)C(=O)N[C@@H](C)C(=O)N[C@H](C(=O)NCc2cc(Cl)cc(Cl)c2)CS[C@H]1C [ethanolamine salt]
pH of saturated solution [2]: 8.74
Solubility [2, 7]: 10.5* mg/mL
Solubility ([2]; salts of compound 1, listed as ethanolamine salt of compound 1): more than 10 mg/mL

CC[C@H](C)[C@@H]1NC(=O)[C@@H]2NC(=O)[C@H](CC(C)C)NC(=O)[C@H](NC(=O)[C@@H]3CSC[C@@H](N)C(=O)N[C@@H](CO)C(=O)NCC(=O)N[C@@H](Cc4c[nH]c5ccccc45)C(=O)N[C@@H](C(C)C)C(=O)N3)[C@H](C)SC[C@H](NC(=O)[C@H](CCC(=O)O)NC1=O)C(=O)NCC(=O)N[C@H]1C(=O)N[C@@H](CC(C)C)C(=O)N[C@@H](C(C)C)C(=O)N[C@@H](CS[C@H]2C)C(=O)N[C@@H](C)C(=O)N[C@H](C(=O)NCc2cc(Cl)cc(Cl)c2)CS[C@H]1C [triethanolamine salt]
pH of saturated solution [2]: 8.43
Solubility [2, 7]: 1.04 mg/mL

CC[C@H](C)[C@@H]1NC(=O)[C@@H]2NC(=O)[C@H](CC(C)C)NC(=O)[C@H](NC(=O)[C@@H]3CSC[C@@H](N)C(=O)N[C@@H](CO)C(=O)NCC(=O)N[C@@H](Cc4c[nH]c5ccccc45)C(=O)N[C@@H](C(C)C)C(=O)N3)[C@H](C)SC[C@H](NC(=O)[C@H](CCC(=O)O)NC1=O)C(=O)NCC(=O)N[C@H]1C(=O)N[C@@H](CC(C)C)C(=O)N[C@@H](C(C)C)C(=O)N[C@@H](CS[C@H]2C)C(=O)N[C@@H](C)C(=O)N[C@H](C(=O)NCc2cc(Cl)cc(Cl)c2)CS[C@H]1C [tromethamine salt]
pH of saturated solution [2]: 8.53
Solubility [2, 7]: 2.38 mg/mL

CN[C@H](CC(C)C)C(=O)N[C@H]1C(=O)N[C@@H](CC(N)=O)C(=O)N[C@H]2C(=O)N[C@H]3C(=O)N[C@H](C(=O)N[C@H](C(=O)O)c4cc(O)cc(O)c4-c4cc3ccc4O)[C@H](O)c3ccc(c(Cl)c3)Oc3cc2cc(c3O[C@@H]2O[C@H](CO)[C@@H](O)[C@H](O)[C@H]2O[C@H]2C[C@](C)(N)[C@H](O)[C@H](C)O2)Oc2ccc(cc2Cl)[C@H]1O [vancomycin, reference compound]
bacterial counts in the thigh tissue [3]: dose dependent reduction
antimicrobial effect ([4]; IV at 5, 10, 20, 30 and 40 mg/Kg×2, 2 and 14 h after thigh infection, harvest at 26 h): significant antimicrobial effect
reductions of CFU/g ([4]; at 30 mg/kg and above, IV ×2, thigh muscle at 26 h): > 100 fold
number of deaths ([5]; 1 mg/kg IV at 1 and 13 h after challenge): 5
number of deaths ([5]; 3 mg/kg IV at 1 and 13 h after challenge): 3
number of deaths ([5]; 5 mg/kg IV at 1 and 13 h after challenge): 1
number of deaths ([5]; 10 mg/kg IV at 1 and 13 h after challenge): 0
survival of mice after 7 days ([5]; 1, 3, 5 and 10 mg/kg): dose-dependent incease in survival
antimicrobial effect against S. aureus (MRSA) in mice ([6]; 3, 5, 10 and 20 mg/Kg×3, SC): significant antimicrobial effect
ED50 ([6]; Staphylococcus aureus, ATCC33591, CD-1 mice, SC at 0, 2 and 24 h after challenge, mortality over 7 days, nonlinear regression, read-out: estimated ED50): 3 mg/kg
